Experimental data as given in PubChem BioAssay (NCI).
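Following 48 hours of exposure in 96-well plates, responses at five concentrations were used to interpolate endpoints linearly. The concentration for 50% growth inhibition is given as GI50. TGI marks complete inhibition of growth.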

How the values were obtained:
Assay in all cases: NCI anticancer screen, dose series, 48 h
A498 renal = system: A498 renal
CAKI-1 renal = system: CAKI-1 renal
COLO 205 colon = system: COLO 205 colon
EKVX NSCLC = system: EKVX NSCLC
HOP-92 NSCLC = system: HOP-92 NSCLC
NCI-H23 lung = system: NCI-H23 lung
RXF 393 renal = system: RXF 393 renal
SK-MEL-5 melanoma = system: SK-MEL-5 melanoma
SW-620 colon = system: SW-620 colon
U251 CNS = system: U251 CNS

SMILES	GI50 (A498 renal) [µM]	TGI (A498 renal) [µM]	GI50 (CAKI-1 renal) [µM]	TGI (CAKI-1 renal) [µM]	GI50 (COLO 205 colon) [µM]	TGI (COLO 205 colon) [µM]	GI50 (EKVX NSCLC) [µM]	TGI (EKVX NSCLC) [µM]	GI50 (HOP-92 NSCLC) [µM]	TGI (HOP-92 NSCLC) [µM]	GI50 (NCI-H23 lung) [µM]	TGI (NCI-H23 lung) [µM]	GI50 (RXF 393 renal) [µM]	TGI (RXF 393 renal) [µM]	GI50 (SK-MEL-5 melanoma) [µM]	TGI (SK-MEL-5 melanoma) [µM]	GI50 (SW-620 colon) [µM]	TGI (SW-620 colon) [µM]	GI50 (U251 CNS) [µM]	TGI (U251 CNS) [µM]
CCOc1ccccc1N=Nc1c(C)[nH]n(-c2nc(-c3ccccc3)cs2)c1=O	23.5	> 100	> 54.2	> 100	> 100	> 100	32.6	> 100	21.9	> 96.8	> 74.1	> 100	16.4	38.4	41.6	> 100	> 100	> 100	36.2	> 100
CC1=C(CO)C(=O)O[C@@H]([C@@H](C)[C@H]2CC[C@H]3[C@@H]4C[C@@H](O)[C@@]5(O)CC=CC(=O)[C@]5(C)[C@H]4CC[C@]23C)C1	–	39.5	–	> 100	–	> 100	–	> 100	–	> 100	–	49.4	–	68.6	–	> 100	–	47.4	–	> 100
Cc1ccc(CNc2c3ccccc3nc3cc(NC(=O)CCN4CCCC4)ccc23)cc1	1.13	2.38	1.23	3.91	0.408	1.62	0.862	2.25	0.516	2.13	0.518	1.81	0.414	1.57	1.54	2.89	0.413	1.58	0.688	2.05
COc1ccc(OC)c(NC(=O)CCC/C(CC(=O)c2ccc(O)c(OC)c2)=N\Nc2ccc([N+](=O)[O-])cc2)c1	–	> 100	–	> 100	–	> 100	–	> 100	–	85.6	–	> 100	–	78.6	–	> 100	–	> 100	–	> 100
O=C(NN1C(=O)CSC12CCCC2)c1[nH]c2ccc(Br)cc2c1-c1ccccc1	> 100	> 100	32.8	> 100	53.4	> 100	> 100	> 100	33.8	> 100	41.1	> 100	31.2	> 100	63.9	> 100	74.6	> 100	38.2	> 100
CC1=C2C(=CC(C)(C)C2O)C(=O)C(C)(O)C12CC2 (stereo not given)	–	0.0822	–	0.0315	0.0191	0.0621	–	0.144	–	0.0526	–	0.0234	–	0.0194	–	0.0219	–	0.0752	0.00775	0.102
COC(=O)C1=C(c2cc(OC)c(OC)c(OC)c2)OC(c2ccc(OC)c(OC)c2)C1 (stereo not given)	–	69.3	–	> 100	–	42.6	–	> 100	–	> 100	–	> 100	–	> 100	–	93.7	–	87	–	> 100
C[CH2][Sn]([CH2]C)([O]C(=O)C(OC(C)=O)c1ccccc1)[O]C(=O)C(OC(C)=O)c1ccccc1 (stereo not given)	19.8	35.6	72	> 100	23.3	72.9	> 100	> 100	18.6	34.9	15.5	29.8	18.6	33.1	68.1	> 100	16.3	36.8	37.6	> 100
COc1c(Cl)cc(NC(=S)C#N)cc1Cl	–	44.5	–	58.4	–	32.2	–	> 74	–	48.8	–	44.6	–	> 81.4	–	32.9	–	> 100	–	43.6
CC1(C)[C@@H](OC(N)=O)[C@H]2O[C@H]2[C@]2(CO)[C@H]3CC[C@]4(C)[C@@H](c5ccc(=O)oc5)[C@@H](Cl)C[C@]4(O)C3=CC[C@@H]12	0.0144	0.0748	0.00521	0.0132	0.0109	0.0506	0.00534	< 0.0138	0.0127	0.0921	0.00552	0.0152	0.00716	0.0829	0.00681	0.0195	0.00835	0.0279	0.00858	0.0297
CCc1cccc(C)c1NC(=O)C(=O)Cc1nc2ccccc2s1	–	> 100	–	> 100	–	> 100	–	> 100	–	5.88	–	> 100	–	> 100	–	> 100	–	> 100	–	> 100
C=C1C(=O)OC2C1C(OC(=O)/C(C)=C/C)CC(O)(CCl)C1C(O)C3OC3(C)C21O (stereo not given)	–	> 50	–	> 50	–	41.9	–	> 50	–	> 50	–	> 50	–	26	–	> 50	–	34.1	–	> 50
O=C(c1ccccc1)c1cccc(C(=O)c2ccccc2)c1	–	> 100	–	> 100	–	> 100	–	> 100	–	> 100	–	> 100	–	> 100	–	> 100	–	> 100	–	> 100
CS[C@]12C(=O)C[C@@]3(C)[C@@H](CC[C@]3(O)C(=O)CO)[C@@H]1CCC1=CC(=O)CC[C@@]12C	–	> 100	–	> 100	–	> 100	–	> 100	–	> 100	–	> 100	–	> 100	–	> 100	–	> 100	–	> 100
CCN(CC)Cc1ccc(Nc2nccc(-c3cnn4ncccc34)n2)cc1	0.0144	0.0452	0.0469	> 9.11	0.00829	0.0337	0.0498	–	0.00833	0.0977	0.0217	0.126	0.0063	0.0147	0.0419	0.215	0.0136	> 9.07	0.014	> 25
Clc1nc(Cl)c2ncn(C/C=C/COc3cccc(OC/C=C/Cn4cnc5c(Cl)nc(Cl)nc54)c3)c2n1	> 100	> 100	> 100	> 100	> 100	> 100	> 100	> 100	> 100	> 100	> 100	> 100	65	> 100	53.5	> 100	> 100	> 100	65.6	> 100
C=C1C(=O)OC2/C=C(/C)C(OC(C)=O)CC(O)/C(C)=C\C(OC(=O)/C(C)=C\C)C12 (stereo not given)	–	> 100	–	86.4	–	> 100	–	> 100	–	> 100	–	> 100	–	> 100	–	> 100	–	67.6	–	> 100
Cc1ccc(N2C(=O)C3C=CC(n4[nH]c(=O)n(Cc5ccccc5)c4=O)CC3C2=O)cc1 (stereo not given)	–	> 100	–	> 100	–	> 100	–	> 100	–	> 100	–	> 100	–	> 100	–	> 100	–	> 100	–	> 100
C1CN(SSN2CCOCC2)CCO1	> 100	> 100	33.7	> 100	25	64	> 100	> 100	15.7	89.2	22.5	55.9	21.8	41.4	41.1	> 100	19.4	42	33.6	> 100
Cc1cccc(C(C)C)c1NC(=O)CC1C(=O)Nc2ccccc2S1(=O)=O (stereo not given)	–	> 54.2	–	> 50	–	> 100	–	> 53.8	–	30.7	–	31.3	–	25.8	–	46.4	–	30.4	–	> 51.4
CC(C)(O)CC(=O)NCCn1ccc2ncnc(Nc3ccc(Oc4cccc(C(F)(F)F)c4)c(Cl)c3)c21	2.9	> 10	1.8	> 10	3.5	> 10	0.415	> 10	1.63	> 10	3.76	> 10	1.87	4.31	2.84	> 10	3.32	> 10	3.45	> 10
C[C@]12CCC3[C@@H](CC[C@@H]4c5nonc5CC[C@]34C)C1C/C(=N/O)C2=O (stereo not given in full)	–	> 100	–	> 100	–	> 100	–	> 100	–	> 100	–	> 100	–	> 100	–	> 100	–	> 100	–	> 100
COc1ccc(/C=C2\CCCC3=C2NC(N)=NC3c2ccc(OC)c(OC)c2)cc1OC (stereo not given)	13.1	> 82.6	4.11	> 100	4.8	> 100	39.7	> 100	2.61	17.1	7.33	> 100	3.96	24.2	3.48	> 100	4.58	> 50.3	2.53	> 91.9
CN(C)c1ccc2c(c1)OC(N)=C(C#N)C2c1ccc2c(c1)CCO2 (stereo not given)	< 0.0272	5.59	0.147	> 100	0.28	3.39	0.47	> 100	5.69	74.3	0.362	> 100	0.255	–	< 0.0427	15.1	< 0.0294	> 100	0.198	29.8
CC(C)c1cccc2sc(NC(=O)C(=O)C(C#N)c3cccc4ccccc34)nc12 (stereo not given)	–	> 100	–	> 100	–	> 100	–	67.2	–	97.9	–	> 100	–	92.3	–	> 100	–	> 100	–	> 100
CN1c2ccccc2N(C)C23N(C)c4ccccc4N(C)C12N(C)c1ccccc1N3C (stereo not given)	–	> 100	–	> 100	–	> 100	–	> 100	–	> 100	–	> 100	–	> 100	–	> 100	–	> 100	–	> 100
Cc1c2c(nn1C)CSCc1cc(n(C)n1)CSc1cc(c3ccccc3c1)OCCCc1c(C(=O)O)n(C)c3c-2c(Cl)ccc13	4.01	19	4.98	17.4	3.36	12.2	3.86	15.7	2.46	10.2	1.78	10.6	1.29	3.63	2.2	5.22	4.26	16	4.05	13.7
CCOC(=O)C(=Cc1cccnc1C)C(=O)OCC	–	31	–	18.9	–	18.4	–	42.1	–	24.5	–	18.4	–	9.8	–	25.1	–	17.5	–	18.6
